Here are results for 1 compound from US20260130864A1, “METHOD AND COMPOSITION FOR ENHANCING EXERCISE PERFORMANCE” (NANJING NUTRABUILDING BIO-TECH CO., LTD., priority 2023, published 2026).

Format in all cases: in vivo
In one assay the test system is dopamine. Put plainly: dopamine content in the brain of mice (ELISA). The note with it: 4 weeks; for dopamine content in the brain: control 3,293 ng/g brain. The procedure:
(§1) Twenty-four pure Swiss male mice were randomly divided into three groups, with 8 mice in each group, and were given food and water freely under the light and dark cycle of 12:12 hours. The first group was the control group (group 1, no DHZ), the second group was given by gavage 50 mg/kg DHZ (group 2), and the third group was given by gavage 100 mg/kg DHZ (group 3). DHZ solution was prepared with 5% DMSO, 25% PEG-400, 30% propylene glycol and 40% normal saline. All the mice were administered at a dose of 10 mL/kg body weight for 4 weeks. 4 weeks later, these mice were made to run on treadmill voluntarily for exercise analysis, and the running distance of each of mice when exhausted was recorded. All the mice were untrained before exercise. Each group was perfused with paraformaldehyde, and brain tissue was frozen in liquid nitrogen for ELISA, and then dopamine was detected. The cecal feces of mice were collected and the flora was sequenced by 16s. The proportion of different bacteria in feces was obtained, and the DNA in feces was extracted to detect the copy number of Eubacterium rectale and Coprococcus eutactus. The statistical analysis of data was conducted by unpaired t-test, and * indicates significant difference. Compared with the control group, * means p<0.05; ** means p<0.01; *** means p<0.001; **** means p<0.0001.
A general note: ELISA stands for enzyme-linked immunosorbent assay.

Another assay concerns Coprococcus eutactus. Put plainly: bacterial copy number of Coprococcus eutactus in cecal feces of mice. The note with it: after 4 weeks of DHZ administration. As for the experimental part: as §1, with “p<0.0001. […]” for “p<0.0001.”
The nature of assay [1]: treadmill exercise endurance of mice after 4 weeks administration. The settings on record: for running distance on treadmill when exhausted (exercise endurance): Swiss male mice, control 948 m. The procedure:
as §1

Another assay deals with Eubacterium rectale. Put plainly: bacterial copy number of Eubacterium rectale in cecal feces of mice. The note with it: after 4 weeks of DHZ administration. The procedure:
as §1, with “p<0.0001. […]” for “p<0.0001.”

[2] abbreviates: high dose group (100 mg/kg by gavage).

With `COc1cc(/C=C/C(C)=O)ccc1O` [DHZ, Dehydrozingerone], the “brain dopamine level, times higher than in the control group” value with dopamine (setting [2]) was determined as 5 times. Besides, the “dopamine content in the brain” value is 19,988 ng/g brain with dopamine (setting [2]) and 16,285 ng/g brain in the assay with dopamine (low dose group (50 mg/kg by gavage)). Besides, the “increase of number (copy number) of Coprococcus eutactus compared with the control group” value in the assay on Coprococcus eutactus is listed as “about 3 times”. For the same compound, the “running distance on treadmill when exhausted (exercise endurance)” value in assay [1] (50 mg/kg DHZ by gavage (low-dose group)) was determined as 1112 m; in assay [1] (100 mg/kg DHZ by gavage (high-dose group)) it was 1367 m. Further, the “exercise performance higher than that of control group” value in assay [1] (high-dose group (100 mg/kg by gavage)) stood at 44%. In the assay on Eubacterium rectale, the “increase of number (copy number) of Eubacterium rectale compared with the control group” value was “about 3 times”.
